Experimental data published in US8912120B2, “Herbicidal compositions comprising 4-amino-3-chloro-5-fluoro-6-(4-chloro-2-fluoro-3-methoxyphenyl) pyridine-2-carboxylic acid or a derivative thereof and synthetic auxin herbicides” (Dow AgroSciences, LLC., priority 2012, dated 2014).
Counter-ions that a name gives are not always drawn.

Assays:
[1] = tested on: CYPRO; assay: Example II: in-water applied herbicidal mixtures, weed control in transplanted paddy rice (greenhouse), CYPRO; type: in vivo, Cyperus rotundus (purple nutsedge); conditions: in-water application
Procedure: (§1) The prepared mud was dispensed in 365 mL aliquots into 16-ounce (oz.) non-perforated plastic pots with a surface area of 86.59 square centimeters (cm^2) leaving a headspace of 3 centimeters (cm) in each pot Mud was allowed to dry overnight prior to planting or transplanting. Rice seeds were planted in Sun Gro MetroMix® 306 planting mixture, which typically has a pH of 6.0 to 6.8 and an organic matter content of about 30 percent, in plastic plug trays. Seedlings at the second or third leaf stage of growth were transplanted into 840 mL of mud contained in 32-oz. non-perforated plastic pots with a surface area of 86.59 cm^2 4 days prior to herbicide application. […] Nutrients were added as Osmocote® (19:6:12, N:P:K^+ minor nutrients) at 2 g per 16-oz. pot and 4 g per 32-oz. pot.
(§2) Applications were made by injecting with a pipetter appropriate amounts of the application solutions, individually and sequentially, into the aqueous layer of the paddy. Control plants were treated in the same manner with the solvent blank. Applications were made so that all treated plant material received the same concentrations of acetone and crop oil concentrate.

[2] = tested on: CASOB; assay: Example V: postemergence herbicidal activity of mixtures in forage crops (greenhouse), CASOB; type: in vivo, Cassia obtusifolia (sicklepod); conditions: alone, 50 gae/ha, foliar, approximately 21 days
Procedure: (§3) Seeds or root cuttings of the desired test plant species were planted in Sun Gro MetroMix® 306 planting mixture, which typically has a pH of 6.0 to 6.8 and an organic matter content of about 30 percent, in plastic pots with a surface area of 126.6 square centimeters (cm^2). […] The plants were grown for 14-60 days in a greenhouse with an approximate 14 hour photoperiod which was maintained at approximately 28° C. during the day and 24° C. during the night.
(§4) Spray solutions of the second herbicide or experimental compound mixtures were prepared by adding the stock solutions to the appropriate amount of dilution solution to form 12 mL spray solution with active ingredients in two-way combinations.

[3] = tested on: SCPMA; assay: Example II: in-water applied herbicidal mixtures, transplanted paddy rice, SCPMA; type: in vivo; conditions: for Visual Weed Control (%) Obs: 20 DAA
Procedure: as §1, §2

[4] = tested on: ECHOR; assay: Example II: in-water applied herbicidal mixtures, transplanted paddy rice, ECHOR; type: in vivo, Echinochloa oryzoides (early watergrass); conditions: for Visual Weed Control (%) - 20 DAA ECHOR Obs / Visual Weed Control (%) - 22 DAA ECHOR Obs: in-water application
Procedure: as §1, §2

[5] = tested on: ECHCG; assay: Example II: in-water applied herbicidal mixtures, transplanted paddy rice, ECHCG; type: in vivo, Echinochloa crus-galli (barnyardgrass); conditions: in-water application
Procedure: as §1, §2

[6] = tested on: CENMA; assay: Example V: postemergence herbicidal activity of mixtures in forage crops, CENMA; type: in vivo, Centaurea maculosa (spotted knapweed); conditions: alone, foliar, approximately 21 days
Procedure: as §3, §4

[7] = tested on: SINAR; assay: Example V: postemergence herbicidal activity of mixtures in forage crops, SINAR; type: in vivo, Sinapis arvensis (wild mustard); conditions: alone, foliar, approximately 21 days
Procedure: as §3, §4

[8] = tested on: TRFRE; assay: Example V: postemergence herbicidal activity of mixtures in forage crops, TRFRE; type: in vivo, Trifolium repens (white clover); conditions: alone, foliar, approximately 21 days
Procedure: as §3, §4

[9] = tested on: AMARE; assay: Example IV: postemergence foliar-applied herbicidal mixtures, weed control in cereal crops in the greenhouse, AMARE; type: in vivo, Amaranthus retroflexus (redroot pigweed); conditions: alone, 20-22 days
Procedure: as §3, with “Seeds” for “Seeds or root cuttings”, “MetroMix” for “MetroMix®”, “103.2” for “126.6”, “7-36” for “14-60”, “about 18°” for “approximately 28°”, “17°” for “24°”
(§5) Spray solutions of the second cereal herbicide and experimental compound mixtures were prepared by adding the stock solutions to the appropriate amount of dilution solution to form 12 mL spray solution with active ingredients in two- and three-way combinations.

[10] = tested on: ECHCG; assay: Example I: postemergence foliar-applied herbicidal mixtures, direct seeded rice, ECHCG; conditions: 16 gae/ha
[11] = tested on: LEFCH; assay: Example II: in-water applied herbicidal mixtures, transplanted paddy rice, LEFCH; type: in vivo, Leptochloa chinensis (Chinese sprangletop); conditions: 19 DAA; 35 gae/ha
Procedure: as §1, §2

[12] = tested on: BRSNN; assay: Example IV: postemergence foliar-applied herbicidal mixtures, cereal crops, BRSNN; type: in vivo, Brassica napus (volunteer canola)
Procedure: as §3, with “Seeds” for “Seeds or root cuttings”, “MetroMix” for “MetroMix®”, “103.2” for “126.6”, “7-36” for “14-60”, “about 18°” for “approximately 28°”, “17°” for “24°”
as §5

[13] = tested on: POLCO; assay: Example IV: postemergence foliar-applied herbicidal mixtures, cereal crops, POLCO; type: in vivo, Polygonum convolvulus (wild buckwheat); conditions: alone, 35 gai/ha, foliar, 20-22 days
Procedure: as §3, with “Seeds” for “Seeds or root cuttings”, “MetroMix” for “MetroMix®”, “103.2” for “126.6”, “7-36” for “14-60”, “about 18°” for “approximately 28°”, “17°” for “24°”
as §5

[14] = tested on: VIOTR; assay: Example IV: postemergence foliar-applied herbicidal mixtures, cereal crops, VIOTR; type: in vivo, Viola tricolor (wild pansy); conditions: after 20-22 days; 140 gai/ha
Procedure: as §3, with “Seeds” for “Seeds or root cuttings”, “MetroMix” for “MetroMix®”, “103.2” for “126.6”, “7-36” for “14-60”, “about 18°” for “approximately 28°”, “17°” for “24°”
as §5

What does the source list for `O=C(O)COc1ccc(Cl)cc1Cl` [2,4-D Choline Salt, 2-hydroxy-N,N,N-trimethylethanaminium 2-(2,4-dichlorophenoxy)acetate, reference compound]?
Visual Weed Control (%) - 20 DAA CYPRO Obs ([1]; 240 gae/ha): 30%; Visual Weed Control (%) - 20 DAA CYPRO Obs ([1]; 480 gae/ha): 30%; CASOB Obs (observed value) [2]: 3%; Visual Weed Control (%) - 20 DAA SCPMA Obs ([3]; 240 gae/ha, in-water application): 0%; Visual Weed Control (%) - 20 DAA ECHOR Obs ([4]; 240 gae/ha): 0%; Visual Weed Control (%) - 20 DAA ECHOR Obs ([4]; 480 gae/ha): 20%

`CCCCC(CC)COC(=O)COc1ccc(Cl)cc1Cl` (centres unmarked) [2,4-D EHE, 2-ethylhexyl 2-(2,4-dichlorophenoxy)acetate, reference compound] was tested. Which “Visual Weed Control (%) - 22 DAA ECHCG Obs” value ([5]; 140 gae/ha) did it give?
The value was 0%.

And the “Visual Weed Control (%) - 22 DAA ECHCG Obs” value ([5]; 280 gae/ha)?
Its value is 0%.

And the “Visual Weed Control (%) - 22 DAA CYPRO Obs” value ([1]; 140 gae/ha)?
Its value is 0%.

And the “Visual Weed Control (%) - 22 DAA CYPRO Obs” value ([1]; 280 gae/ha)?
The value was 0%.

And the “Visual Weed Control (%) - 22 DAA ECHOR Obs” value ([4]; 140 gae/ha)?
The value was 0%.

What about the “Visual Weed Control (%) - 22 DAA ECHOR Obs” value ([4]; 280 gae/ha) of the same compound?
Its value is 0%.

Which “CENMA Obs (observed value)” value ([6]; 8.75 gae/ha) does the source give for `Nc1nc(C2CC2)nc(C(=O)O)c1Cl` [Aminocyclopyrachlor, 6-amino-5-chloro-2-cyclopropyl-4-pyrimidinecarboxylic acid, reference compound] here?
The value was 55%.

And the “CENMA Obs (observed value)” value ([6]; 17.5 gae/ha)?
The value was 60%.

What about the “SINAR Obs (observed value)” value ([7]; 8.75 gae/ha) of the same compound?
Its value is 25%.

What about the “SINAR Obs (observed value)” value ([7]; 17.5 gae/ha) of the same compound?
Its value is 45%.

What about the “TRFRE Obs (observed value)” value ([8]; 8.75 gae/ha) of the same compound?
The value was 45%.

And the “TRFRE Obs (observed value)” value ([8]; 17.5 gae/ha)?
Its value is 55%.

How did the “AMARE Ob (observed value)” value ([9]; 50 gai/ha) turn out when `O=C(O)c1nc(Cl)ccc1Cl` [Clopyralid, 3,6-dichloro-2-pyridinecarboxylic acid] was run?
Its value is 17%.

How did the “Visual Weed Control (%) - 19 DAA ECHCG Obs” value [10] turn out when `CCCCOC(=O)c1nc(-c2ccc(Cl)c(OC)c2F)c(F)c(N)c1Cl` [Compound A n-Butyl Ester] was run?
The value was 65%.

And the “Visual Weed Control (%) Obs” value ([3]; 35 gae/ha)?
The value was 0%.

And the “Visual Weed Control (%) Obs” value ([3]; 70 gae/ha)?
The value was 0%.

And the “Visual Weed Control (%) Obs” value [11]?
The value was 43%.

What about the “Visual Weed Control (%) Obs” value ([4]; 19 DAA, 35 gae/ha) of the same compound?
Its value is 80%.

For `COc1c(Cl)ccc(Cl)c1C(=O)O` [Dicamba, 3,6-dichloro-2-methoxybenzoic acid], which “AMARE Ob (observed value)” value ([9]; 35 gai/ha) is on record?
The value was 53%.

What about the “BRSNN Ob (observed value)” value ([12]; alone, 35 gai/ha, foliar, 20-22 days) of the same compound?
Its value is 8%.

And the “POLCO Ob (observed value)” value [13]?
The value was 13%.

What does the source list for `C[C@@H](Oc1ccc(Cl)cc1Cl)C(=O)O` [Dichlorprop-P, (2R)-2-(2,4-dichlorophenoxy)propanoic acid]?
Weed Control Ob ([12]; after 20-22 days, 140 gai/ha): 57%; Weed Control Ob [14]: 27%
